Patent US8592417B2, “2-substituted-6-heterocyclic pyrimidone derivatives as tau protein kinase 1 inhibitors” (Mitsubishi Tanabe Pharma Corporation, priority 2006, dated 2013)

Biological target: T1, bovine cerebral TPK1 (Bos taurus, UniProt A0A3Q1MT31)
T1 construct: bovine cerebral TPK1; from tissue; host or cells: bovine brain (cerebrum)
Assay: Inhibitory activity against P-GS1 phosphorylation by bovine cerebral TPK1
Type: biochemical
Details: 41.7 μM [γ-32P] ATP, 25° C. for 2 hours
Procedure: Inhibitory Activity of the Medicament of the Present Invention Against P-GS1 Phosphorylation by Bovine Cerebral TPK1
A mixture containing 100 mM MES-sodium hydroxide (pH 6.5), 1 mM magnesium acetate, 0.5 mM EGTA, 5 mM β-mercaptoethanol, 0.02% Tween 20, 10% glycerol, 12 μg/ml P-GS1, 41.7 μM [γ^−32P] ATP (68 kBq/ml), bovine cerebral TPK1 and a compound shown in Table (a final mixture contained 1.7% DMSO deriving from a solution of a test compound prepared in the presence of 10% DMSO) was used as a reaction system. The phosphorylation was started by adding ATP, and the reaction was conducted at 25° C. for 2 hours, and then stopped by adding 21% perchloric acid on ice cooling. The reaction mixture was centrifuged at 12,000 rpm for 5 minutes and adsorbed on P81 paper (Whatmann), and then the paper was washed four times with 75 mM phosphoric acid, three times with water and once with acetone. The paper was dried, and the residual radioactivity was measured using a liquid scintillation counter.

T1 sequence (A0A3Q1MT31 1-419): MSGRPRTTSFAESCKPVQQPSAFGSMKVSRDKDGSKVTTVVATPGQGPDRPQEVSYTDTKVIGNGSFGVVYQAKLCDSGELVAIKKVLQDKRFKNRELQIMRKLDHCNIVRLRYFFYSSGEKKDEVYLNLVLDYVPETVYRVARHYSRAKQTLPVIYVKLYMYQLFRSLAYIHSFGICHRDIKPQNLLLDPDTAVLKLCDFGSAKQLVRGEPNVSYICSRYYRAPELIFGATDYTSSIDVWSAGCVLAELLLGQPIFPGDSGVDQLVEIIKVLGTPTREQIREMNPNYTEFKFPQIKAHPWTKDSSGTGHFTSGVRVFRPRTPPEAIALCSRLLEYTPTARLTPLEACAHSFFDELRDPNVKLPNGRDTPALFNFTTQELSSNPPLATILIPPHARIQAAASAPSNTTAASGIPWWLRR

| Structure (SMILES) | IC50 |
| --- | --- |
| O=c1cc(-c2ccncn2)nc(N2CCO[C@@H](c3ccc(F)cc3)C2)[nH]1 [Compound 2, 2-[(2S)-2-(4-Fluorophenyl)morpholin-4-yl]-1H-[4,4′]bipyrimidinyl-6-one] | 86.3 nM |
| O=c1cc(-c2ccncc2F)nc(N2CCO[C@@H](c3ccc(F)cc3)C2)[nH]1 [Compound 3, 2-[(2S)-2-(4-Fluoro-phenyl)-morpholin-4-yl]-6-(3-fluoro-pyridin-4-yl)-3H-pyrimidin-4-one] | 59.8 nM |
